Experimental data from PMC7726444 (Frontiers in Pharmacology, 2020).
Like-named read-outs stand apart in the source and are kept apart here.

Experiments:
[1] = target: T1, doubly truncated TPH1 (ΔNH102-ΔCOOH402) (Homo sapiens, UniProt P17752); assay: Tryptophan hydroxylase enzymatic activity assay (HPLC quantification of 5-OH-Trp), doubly truncated TPH1; type: biochemical; conditions: for IC50: doubly truncated TPH1, 20 µM L-Trp, 200 µM BH4, 37°C, mean (95% confidence interval), three experiments in duplicate; for fold less potent inhibitor of TPH1 than omeprazole: relative to omeprazole TPH1 IC50; for reduction of TPH1 activity: 100 µM compound, preliminary activity assay
T1 construct: The ΔNH102-ΔCOOH402 human TPH1 gene was cloned; six-His (C); made in house

WT full-length TPH2 = target: T2, WT full-length TPH2 (Homo sapiens, UniProt Q8IWU9); assay: Tryptophan hydroxylase enzymatic activity assay, WT full-length TPH2; type: biochemical; conditions: mean (95% confidence interval), three experiments in duplicate
T2 construct: both the doubly truncated TPH1 protein and WT full-length TPH2 protein; made in house
T2 sequence (Q8IWU9 1-490): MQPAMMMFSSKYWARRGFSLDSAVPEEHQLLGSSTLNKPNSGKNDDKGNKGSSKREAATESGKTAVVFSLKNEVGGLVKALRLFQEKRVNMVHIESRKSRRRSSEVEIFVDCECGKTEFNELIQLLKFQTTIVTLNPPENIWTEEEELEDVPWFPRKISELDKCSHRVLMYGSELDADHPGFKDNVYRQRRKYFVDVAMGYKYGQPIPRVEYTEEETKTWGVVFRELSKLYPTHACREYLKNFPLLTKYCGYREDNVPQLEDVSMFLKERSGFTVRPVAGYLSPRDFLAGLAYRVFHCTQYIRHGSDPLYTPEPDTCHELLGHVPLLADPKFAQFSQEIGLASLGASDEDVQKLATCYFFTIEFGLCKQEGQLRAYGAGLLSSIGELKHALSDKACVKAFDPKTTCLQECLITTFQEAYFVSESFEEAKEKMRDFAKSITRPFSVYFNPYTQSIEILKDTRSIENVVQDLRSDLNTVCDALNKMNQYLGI

MAO-A [2] = target: T3, MAO-A (Homo sapiens, UniProt P21397); assay: MAO-A enzymatic activity assay (MAO-A Inhibitor Screening Kit, fluorimetric detection of H2O2); type: biochemical; conditions: 25°C, 15 min kinetic read; mean (95% confidence interval), three experiments
T3 construct: purchased BioVision, Inc, Milpitas, CA
T3 sequence (P21397 1-527): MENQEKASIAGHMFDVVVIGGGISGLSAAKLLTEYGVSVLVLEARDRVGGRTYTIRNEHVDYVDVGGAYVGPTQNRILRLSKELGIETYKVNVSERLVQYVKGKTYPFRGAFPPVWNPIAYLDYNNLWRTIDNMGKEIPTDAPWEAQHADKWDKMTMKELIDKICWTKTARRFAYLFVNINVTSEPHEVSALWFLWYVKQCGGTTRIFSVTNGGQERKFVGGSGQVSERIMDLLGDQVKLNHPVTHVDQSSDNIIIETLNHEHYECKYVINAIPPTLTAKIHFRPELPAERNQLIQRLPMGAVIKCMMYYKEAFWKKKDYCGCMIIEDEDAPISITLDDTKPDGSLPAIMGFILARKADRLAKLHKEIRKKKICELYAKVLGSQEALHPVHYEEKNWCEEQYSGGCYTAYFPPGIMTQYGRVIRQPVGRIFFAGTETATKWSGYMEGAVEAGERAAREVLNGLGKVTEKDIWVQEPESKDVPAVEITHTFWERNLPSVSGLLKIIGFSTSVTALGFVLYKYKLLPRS
Protocol: The experiments were conducted following the manufacturer’s (BioVision, Inc, Milpitas, CA) instructions and were based on the fluorimetric detection of H2O2, a byproduct of the enzymatic activity of MAO-A, by measuring the fluorescence (Excitation/Emission at 535/587 nm) kinetically at 25°C for 15 min using a Tecan Spark plate reader (Tecan Group Ltd, Männedorf, Switzerland).
Relative inhibition of MAO-A was calculated as a percentage using the following Eq. 2: %Relative inhibition=((Slope of EC−Slope of S)/Slope of EC)×100 (2)
The slopes for all samples, either containing Enzyme Control (EC) or test substance (S), were calculated by dividing the net change in relative fluorescence units (ΔRFU; RFU2–RFU1) by the time interval (Δt; t2 –t1).

MAO-A [3] = target: T3, MAO-A; design: method as in Petzer et al., 2013; conditions: ref Petzer et al., 2013; cited from earlier work

T1 sequence (P17752 102-402, stated change not applied): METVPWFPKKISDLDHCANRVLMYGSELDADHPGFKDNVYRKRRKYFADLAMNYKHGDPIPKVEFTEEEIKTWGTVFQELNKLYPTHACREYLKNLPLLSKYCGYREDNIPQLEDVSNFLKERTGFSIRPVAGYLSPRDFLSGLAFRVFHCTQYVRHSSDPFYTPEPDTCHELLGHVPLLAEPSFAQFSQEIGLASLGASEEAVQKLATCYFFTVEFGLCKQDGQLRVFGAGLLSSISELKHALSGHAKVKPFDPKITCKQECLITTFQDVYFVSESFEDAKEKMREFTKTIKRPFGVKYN

SMILES | IC50 [1] | fold less potent inhibitor of TPH1 than omeprazole [1] | IC50 (WT full-length TPH2) | IC50 (MAO-A [2]) | reduction of TPH1 activity [1] | IC50 (MAO-A [3])
COc1ccc2nc([S@@+]([O-])Cc3ncc(C)c(OC)c3C)[nH]c2c1 [Esomeprazole] | 3.76 µM |  | 2.15 µM | 18 µM |  | 23 µM
COc1ccnc(C[S+]([O-])c2nc3cc(-n4cccc4)ccc3[nH]2)c1C (stereo not drawn) [Ilaprazole] |  |  | 0.53 µM | 29 µM |  | 
Cc1c(OCC(F)(F)F)ccnc1C[S+]([O-])c1nc2ccccc2[nH]1 (stereo not drawn) [Lansoprazole] | 24.6 µM | 6 fold | 5.21 µM | 251 µM |  | 
COCCCOc1ccnc(C[S+]([O-])c2nc3ccccc3[nH]2)c1C (stereo not drawn) [Rabeprazole] | 7.57 µM |  | 2.13 µM | 12.8 µM |  | 
CC1CCc2cc(F)cc3c(=O)c(C(=O)O)cn1c23 (stereo not drawn) [flumequine] | ~100 µM |  |  |  | more than 50% | 
COC(=O)C1=C(C#N)NC(C)=C(C(=O)OC(C)C)C1c1cccc([N+](=O)[O-])c1 (stereo not drawn) [nilvadipine] | ~100 µM |  |  |  | more than 50% | 
CSc1nc2cc(Cl)c(Oc3cccc(Cl)c3Cl)cc2[nH]1 [triclabendazole] | ~100 µM |  |  |  | more than 50% | 

Second part, led by results:

IC50 [1] | fold less potent inhibitor of TPH1 than omeprazole [1] | IC50 (WT full-length TPH2) | IC50 (MAO-A [2]) | reduction of TPH1 activity [1] | SMILES | IC50 (MAO-A [3])
18.8 µM | 6 fold | 3.36 µM | 137 µM |  | Cc1c(OCC(F)(F)F)ccnc1C[S@@+]([O-])c1nc2ccccc2[nH]1 [(R)-lansoprazole] | 
21.7 µM | 6 fold | 8.2 µM | 462 µM |  | COc1ccnc(C[S+]([O-])c2nc3ccc(OC(F)F)cc3[nH]2)c1OC (stereo not drawn) [Pantoprazole] | 
2.16 µM |  | 4.9 µM | 29.2 µM |  | COc1ccc2[nH]c([S+]([O-])Cc3ncc(C)c(OC)c3C)nc2n1 (stereo not drawn) [Tenatoprazole] | 
